In patent publication US9365541B2, “Compounds for use in the treatment of parasitic diseases” (IRBM—SCIENCE PARK S.P.A., priority 2012, dated 2016):

Columns and labels:
[1] = test system: Plasmodium falciparum 3D7; assay: P. falciparum growth inhibition assay (Pf-LDH); assay type: cell-based; conditions: Plasmodium falciparum, Erythrocyte; P. falciparum 3D7 infected erythrocytes, 72 h incubation, PfLDH readout
How it was run: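 Compounds were tested against 72 h cultures of the 3D7 strain (0.25% parasitemia, 2% hematocrit, 37° C, low-oxygen gas). Parasite growth was quantified as lactate dehydrogenase activity via NBT reduction, absorbance 650 nm, after freezing and thawing.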

human HDAC1 = biological target: T1, human HDAC1 (Homo sapiens, UniProt Q13547); assay: Homo sapiens HDAC1 inhibition assay (Fluor-de-Lys, enzymatic); assay type: biochemical; conditions: human HDAC enzymatic assay; read-out: hHDAC IC50
T1 construct: made in house; host or cells: HeLa (ATCC CCL-2), mammalian cells
T1 sequence (Q13547 whole entry): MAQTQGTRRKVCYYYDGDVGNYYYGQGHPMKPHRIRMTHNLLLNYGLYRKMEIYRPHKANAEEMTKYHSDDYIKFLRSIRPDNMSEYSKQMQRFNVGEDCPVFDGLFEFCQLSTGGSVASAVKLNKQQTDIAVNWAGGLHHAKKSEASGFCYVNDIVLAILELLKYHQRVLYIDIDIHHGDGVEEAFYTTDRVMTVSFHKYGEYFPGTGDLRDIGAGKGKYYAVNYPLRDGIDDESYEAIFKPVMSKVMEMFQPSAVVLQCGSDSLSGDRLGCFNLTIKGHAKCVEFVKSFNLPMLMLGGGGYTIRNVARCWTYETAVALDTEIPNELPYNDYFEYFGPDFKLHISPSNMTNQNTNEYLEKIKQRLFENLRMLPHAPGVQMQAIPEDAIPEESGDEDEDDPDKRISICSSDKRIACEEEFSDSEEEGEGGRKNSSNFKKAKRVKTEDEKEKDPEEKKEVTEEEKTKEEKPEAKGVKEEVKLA
How it was run: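 Fluorogenic deacetylation read-out: trypsin developer, supplemented with 2 μM final TSA as stop, releases fluorophore from deacetylated substrate.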

SMILES: CNC(=O)CCCCC[C@H](NC(=O)c1cncs1)c1ncc(-c2ccc3[nH]ncc3c2)[nH]1 [Entry 160, (S)-N-(1-(5-(1H-indazol-5-yl)-1H-imidazol-2-yl)-7-(methylamino)-7-oxoheptyl)thiazole-5-carboxamide]
- EC50 [1]: < 1000 nM
- IC50 (human HDAC1): 1000 to 5000 nM

SMILES: CNC(=O)CCCCC[C@H](NC(=O)c1cncs1)c1ncc(-c2ccc3sccc3c2)[nH]1 [Entry 161, (S)-N-(1-(5-(benzo[b]thiophen-5-yl)-1H-imidazol-2-yl)-7-(methylamino)-7-oxoheptyl)thiazole-5-carboxamide]
- EC50 [1]: 1000 to 5000 nM
- IC50 (human HDAC1): 1000 to 5000 nM

SMILES: CNC(=O)CCCCC[C@H](NC(=O)C1CCN(C)CC1)c1ncc(-c2ccc(-n3cccn3)cc2)[nH]1 [Entry 162]
- EC50 [1]: > 5000 nM
- IC50 (human HDAC1): > 5000 nM

SMILES: CNC(=O)CCCCC[C@H](NC(=O)Cc1cnc2ccccn12)c1ncc(-c2ccc(-n3cccn3)cc2)[nH]1 [Entry 163, (S)-7-(5-(4-(1H-pyrazol-1-yl)phenyl)-1H-imidazol-2-yl)-7-(2-(imidazo[1,2-a]pyridin-3-yl)acetamido)-N-methylheptanamide]
- EC50 [1]: 1000 to 5000 nM
- IC50 (human HDAC1): 1000 to 5000 nM

SMILES: CNC(=O)CCCCC[C@H](NC(=O)c1cn2ccsc2n1)c1ncc(-c2ccc3ccccc3c2)[nH]1 [Entry 164, (S)-N-(7-(methylamino)-1-(5-(naphthalen-2-yl)-1H-imidazol-2-yl)-7-oxo-heptyl)imidazo[2,1-b]thiazole-6-carboxamide]
- EC50 [1]: > 5000 nM
- IC50 (human HDAC1): > 5000 nM

SMILES: CNC(=O)CCCCC[C@H](NC(=O)CN1CCN(C)CC1)c1ncc(-c2ccc3ccccc3c2)[nH]1 [Entry 165, (S)-N-methyl-7-(2-(4-methylpiperazin-1-yl)acetamido)-7-(5-(naphthalen-2-yl)-1H-imidazol-2-yl)heptanamide]
- EC50 [1]: > 5000 nM
- IC50 (human HDAC1): 1000 to 5000 nM

SMILES: CNC(=O)CCCCC[C@H](NC(=O)C1CNC(=O)C1)c1ncc(-c2ccc3ccccc3c2)[nH]1 (stereo partly drawn) [Entry 166, N-((S)-7-(methylamino)-1-(5-(naphthalen-2-yl)-1H-imidazol-2-yl)-7-oxoheptyl)-5-oxopyrrolidine-3-carboxamide]
- EC50 [1]: 1000 to 5000 nM
- IC50 (human HDAC1): 1000 to 5000 nM

SMILES: CNC(=O)CCCCC[C@H](NC(=O)CCc1nnc(C)[nH]1)c1ncc(-c2ccc3ccncc3c2)[nH]1 [Entry 167]
- EC50 [1]: 1000 to 5000 nM
- IC50 (human HDAC1): 1000 to 5000 nM

SMILES: CNC(=O)CCCCC[C@H](NC(=O)Cc1cn2ccsc2n1)c1ncc(-c2ccc3ccncc3c2)[nH]1 [Entry 168, (S)-7-(2-(imidazo[2,1-b]thiazol-6-yl)acetamido)-7-(5-(isoquinolin-7-yl)-1H-imidazol-2-yl)-N-methyl-heptanamide]
- EC50 [1]: 1000 to 5000 nM
- IC50 (human HDAC1): 1000 to 5000 nM

SMILES: CNC(=O)CCCCC[C@H](NC(=O)Cn1cc2ccccc2n1)c1ncc(-c2ccc(-c3ccn(C)n3)cc2)[nH]1 [Entry 169, (S)-7-(2-(2H-indazol-2-yl)acetamido)-N-methyl-7-(5-(4-(1-methyl-1H-pyrazol-3-yl)phenyl)-1H-imidazol-2-yl)heptanamide]
- EC50 [1]: 1000 to 5000 nM
- IC50 (human HDAC1): < 1000 nM

SMILES: CNC(=O)CCCCC[C@H](NC(=O)C1CC1c1ccncc1)c1ncc(-c2ccc(-c3ccn(C)n3)cc2)[nH]1 (stereo partly drawn) [Entry 170, N-((S)-1-(5-(4-(1-methyl-1H-pyrazol-3-yl)phenyl)-1H-imidazol-2-yl)-7-(methylamino)-7-oxoheptyl)-2-(pyridin-4-yl)cyclopropane-carboxamide]
- EC50 [1]: 1000 to 5000 nM
- IC50 (human HDAC1): 1000 to 5000 nM

SMILES: CNC(=O)CCCCC[C@H](NC(=O)Cn1ccc(C)n1)c1ncc(-c2ccc(-c3ccn(C)n3)cc2)[nH]1 [Entry 171, (S)-N-methyl-7-(2-(3-methyl-1H-pyrazol-1-yl)acetamido)-7-(5-(4-(1-methyl-1H-pyrazol-3-yl)phenyl)-1H-imidazol-2-yl)heptanamide]
- EC50 [1]: > 5000 nM
- IC50 (human HDAC1): > 5000 nM

SMILES: CNC(=O)CCCCC[C@H](NC(=O)c1cncs1)c1ncc(-c2ccc(-n3cccn3)cc2)[nH]1 [Entry 172, (S)-N-(1-(5-(4-(1H-pyrazol-1-yl)phenyl)-1H-imidazol-2-yl)-7-(methylamino)-7-oxoheptyl)thiazole-5-carboxamide]
- EC50 [1]: < 1000 nM
- IC50 (human HDAC1): 1000 to 5000 nM

SMILES: CNC(=O)CCCCC[C@H](NC(=O)c1cncs1)c1ncc(-c2ccc3cc[nH]c3c2)[nH]1 [Entry 173, (S)-N-(1-(5-(1H-indol-6-yl)-1H-imidazol-2-yl)-7-(methylamino)-7-oxoheptyl)thiazole-5-carboxamide]
- EC50 [1]: 1000 to 5000 nM
- IC50 (human HDAC1): 1000 to 5000 nM

SMILES: COc1ccc2[nH]c(C)c(CC(=O)N[C@@H](CCCCCC(N)=O)c3nnc(-c4ccc5ccccc5c4)o3)c2c1 [Entry 174, (S)-7-(2-(5-methoxy-2-methyl-1H-indol-3-yl)acetamido)-7-(5-(naphthalen-2-yl)-1,3,4-oxadiazol-2-yl)heptanamide]
- EC50 [1]: 1000 to 5000 nM
- IC50 (human HDAC1): < 1000 nM

SMILES: CNC(=O)CCCCC[C@H](NC(=O)c1cccnc1)c1ncc(-c2ccc3ccccc3c2)[nH]1 [Entry 175, (S)-N-(7-(methylamino)-1-(5-(naphthalen-2-yl)-1H-imidazol-2-yl)-7-oxo-heptyl)nicotinamide]
- EC50 [1]: < 1000 nM
- IC50 (human HDAC1): < 1000 nM

SMILES: CCN1CCCC(C(=O)N[C@@H](CCCCCC(=O)NC)c2ncc(-c3ccc4ccccc4c3)[nH]2)C1 (stereo partly drawn) [Entry 176, 1-ethyl-N-((S)-7-(methylamino)-1-(5-(naphthalen-2-yl)-1H-imidazol-2-yl)-7-oxo-heptyl)piperidine-3-carboxamide]
- EC50 [1]: 1000 to 5000 nM
- IC50 (human HDAC1): < 1000 nM

SMILES: CNC(=O)CCCCC[C@H](NC(=O)C12CCN(CC1)CC2)c1ncc(-c2cc3ccccc3nc2OC)[nH]1 [Entry 177, (S)-N-(1-(5-(2-methoxyquinolin-3-yl)-1H-imidazol-2-yl)-7-(methylamino)-7-oxo-heptyl)quinuclidine-4-carboxamide]
- EC50 [1]: < 1000 nM
- IC50 (human HDAC1): < 1000 nM

SMILES: CNC(=O)CCCCC[C@H](NC(=O)CN(C)C)c1ncc(-c2cc3ccccc3nc2OC)[nH]1 [Entry 179, (S)-7-(2-(dimethyl-amino)acetamido)-7-(5-(2-methoxyquinolin-3-yl)-1H-imidazol-2-yl)-N-methylheptanamide]
- EC50 [1]: > 5000 nM
- IC50 (human HDAC1): 1000 to 5000 nM

SMILES: CNC(=O)CCCCC[C@H](NC(=O)CCn1cncn1)c1ncc(-c2cc3ccccc3nc2OC)[nH]1 [Entry 180, (S)-7-(3-(1H-1,2,4-triazol-1-yl)propanamido)-7-(5-(2-methoxyquinolin-3-yl)-1H-imidazol-2-yl)-N-methyl-heptanamide]
- EC50 [1]: 1000 to 5000 nM
- IC50 (human HDAC1): 1000 to 5000 nM

SMILES: CNC(=O)CCCCC[C@H](NC(=O)C12CCN(CC1)CC2)c1ncc(-c2ccc(Cl)c(C)c2)[nH]1 [Entry 181, (S)-N-(1-(5-(4-chloro-3-methylphenyl)-1H-imidazol-2-yl)-7-(methylamino)-7-oxo-heptyl)quinuclidine-4-carboxamide]
- EC50 [1]: > 5000 nM
- IC50 (human HDAC1): 1000 to 5000 nM

SMILES: CNC(=O)CCCCC[C@H](NC(=O)OCc1ccccc1)c1ncc(-c2ccc(-c3ccn(C)n3)cc2)[nH]1 [Entry 182, (S)-benzyl(1-(5-(4-(1-methyl-1H-pyrazol-3-yl)phenyl)-1H-imidazol-2-yl)-7-(methylamino)-7-oxoheptyl)carbamate]
- EC50 [1]: 1000 to 5000 nM
- IC50 (human HDAC1): 1000 to 5000 nM

SMILES: CNC(=O)CCCCC[C@H](NC(=O)c1ccc(N2CC(=O)NC2=O)cc1)c1ncc(-c2cc3ccccc3nc2OC)[nH]1 [Entry 183, (S)-4-(2,4-dioxoimidazolidin-1-yl)-N-(1-(5-(2-methoxyquinolin-3-yl)-1H-imidazol-2-yl)-7-(methylamino)-7-oxoheptyl)benzamide]
- EC50 [1]: 1000 to 5000 nM
- IC50 (human HDAC1): 1000 to 5000 nM

SMILES: CNC(=O)CCCCC[C@H](NC(=O)Cn1cnnc1)c1ncc(-c2cc3ccccc3nc2OC)[nH]1 [Entry 184, (S)-7-(2-(4H-1,2,4-triazol-4-yl)acetamido)-7-(5-(2-methoxyquinolin-3-yl)-1H-imidazol-2-yl)-N-methylheptanamide]
- EC50 [1]: 1000 to 5000 nM
- IC50 (human HDAC1): 1000 to 5000 nM

SMILES: CNC(=O)CCCCC[C@H](NC(=O)Cc1csc(-c2ccccc2)n1)c1ncc(-c2cc3ccccc3nc2OC)[nH]1 [Entry 185]
- EC50 [1]: 1000 to 5000 nM
- IC50 (human HDAC1): 1000 to 5000 nM

SMILES: CNC(=O)CCCCC[C@H](NC(=O)CCc1c(C)nc2ncnn2c1C)c1ncc(-c2cc3ccccc3nc2OC)[nH]1 [Entry 186, (S)-7-(3-(5,7-dimethyl-[1,2,4]triazolo[1,5-a]pyrimidin-6-yl)propanamido)-7-(5-(2-methoxyquinolin-3-yl)-1H-imidazol-2-yl)-N-methylheptanamide]
- EC50 [1]: < 1000 nM
- IC50 (human HDAC1): < 1000 nM

SMILES: CNC(=O)CCCCC[C@H](NC(=O)C1CCCO1)c1ncc(-c2cc3ccccc3nc2OC)[nH]1 (stereo partly drawn) [Entry 187, N-((S)-1-(5-(2-methoxyquinolin-3-yl)-1H-imidazol-2-yl)-7-(methylamino)-7-oxo-heptyl)tetra-hydrofuran-2-carboxamide]
- EC50 [1]: > 5000 nM
- IC50 (human HDAC1): > 5000 nM

SMILES: CNC(=O)CCCCC[C@H](NC(=O)c1cncs1)c1ncc(-c2cccc(-c3cc[nH]n3)c2)[nH]1 [Entry 188, (S)-N-(1-(5-(3-(1H-pyrazol-3-yl)phenyl)-1H-imidazol-2-yl)-7-(methylamino)-7-oxoheptyl)thiazole-5-carboxamide]
- EC50 [1]: 1000 to 5000 nM
- IC50 (human HDAC1): > 5000 nM

SMILES: CNC(=O)CCCCC[C@H](NC(=O)c1cc(C(C)C)on1)c1ncc(-c2ccc3ccncc3c2)[nH]1 [Entry 189, (S)-5-isopropyl-N-(1-(5-(isoquinolin-7-yl)-1H-imidazol-2-yl)-7-(methylamino)-7-oxoheptyl)isoxazole-3-carboxamide]
- EC50 [1]: 1000 to 5000 nM
- IC50 (human HDAC1): 1000 to 5000 nM

SMILES: CNC(=O)CCCCC[C@H](NC(=O)c1cncs1)c1ncc(-c2ccc3cc(C(F)(F)F)ncc3c2)[nH]1 [Entry 190]
- EC50 [1]: < 1000 nM
- IC50 (human HDAC1): < 1000 nM

SMILES: CNC(=O)CCCCC[C@H](NC(=O)c1cncs1)c1ncc(-c2ccc3c(cnn3C)c2)[nH]1 [Entry 191, (S)-N-(1-(5-(1-methyl-1H-indazol-5-yl)-1H-imidazol-2-yl)-7-(methylamino)-7-oxoheptyl)thiazole-5-carboxamide]
- EC50 [1]: < 1000 nM
- IC50 (human HDAC1): 1000 to 5000 nM
